Reference: BindingDB's records for doi:10.1016/0960-894X(95)00059-3 (1995)

How the values were obtained:
[1] = target: Reverse transcriptase (Human immunodeficiency virus 2); test: Inhibitory activity against HIV-2 reverse transcriptase
[2] = Inhibitory activity against HIV-1 RT with poly.rC-oligo.dG template primer

Structure (SMILES) | IC50 [1] [nM] | IC50 [2] [nM]
Cc1nc(-c2[nH]c3ccc(Cl)cc3c2S(=O)(=O)c2ccccc2)[nH]c1C [3-Benzenesulfonyl-5-chloro-2-(4,5-dimethyl-1H-imidazol-2-yl)-1H-indole] | > 300000 | 5.1
O=S(=O)(c1ccccc1)c1c(C2=N[C@H]3CCCC[C@@H]3N2)[nH]c2ccc(Cl)cc12 [(3aS,7aS)-2-(3-Benzenesulfonyl-5-chloro-1H-indol-2-yl)-3a,4,5,6,7,7a-hexahydro-1H-benzoimidazole] |  | 29
O=S(=O)(c1ccccc1)c1c(-c2nc3c([nH]2)CCCC3)[nH]c2ccc(Cl)cc12 [2-(3-Benzenesulfonyl-5-chloro-1H-indol-2-yl)-4,5,6,7-tetrahydro-1H-benzoimidazole] |  | 8.1
CC1(C)CN=C(c2[nH]c3ccc(Cl)cc3c2S(=O)(=O)c2ccccc2)N1 [3-Benzenesulfonyl-5-chloro-2-(5,5-dimethyl-4,5-dihydro-1H-imidazol-2-yl)-1H-indole] |  | 50
CCc1nc(-c2[nH]c3ccc(Cl)cc3c2S(=O)(=O)c2ccccc2)[nH]c1CC [3-Benzenesulfonyl-5-chloro-2-(4,5-diethyl-1H-imidazol-2-yl)-1H-indole] |  | 10
O=S(=O)(c1ccccc1)c1c(C2=NCCS2)[nH]c2ccc(Cl)cc12 [3-Benzenesulfonyl-5-chloro-2-(4,5-dihydro-thiazol-2-yl)-1H-indole] | > 300000 | 17
O=S(=O)(c1ccccc1)c1c(C2=NCCCN2)[nH]c2ccc(Cl)cc12 [3-Benzenesulfonyl-5-chloro-2-(1,4,5,6-tetrahydro-pyrimidin-2-yl)-1H-indole] |  | 2290
O=S(=O)(c1ccccc1)c1c(-n2ccnc2)[nH]c2ccc(Cl)cc12 [3-Benzenesulfonyl-5-chloro-2-imidazol-1-yl-1H-indole] |  | 2380
